How the values were obtained:
[1] = Solubility in hydrocarbon solvents at 20° C.; assay type: physicochemical
Text: Solubility in hydrocarbon solvents was examined for the compounds II-1 and II-2 of the present invention and for the compounds AO-1 and AO-2 which are structurally similar to the compounds of the present invention. The hydrocarbon solvents used were n-hexane and cyclohexane. (g/100 g solvent)

[2] = U.S. Pat. No. 4,525,514; cited from earlier work

| Solubility in Cyclohexane [1] [g/100 g solvent] | Solubility in n-Hexane [1] [g/100 g solvent] | SMILES | effect as a stabilizer for butadiene polymers (in words) [2] |
| --- | --- | --- | --- |
| 89 | 55 | C=CC(=O)Oc1c(C(C)c2cc(C(C)(C)CC)cc(C(C)(C)CC)c2O)cc(C(C)(C)CC)cc1C(C)(C)CC (stereo not drawn) [II-1, 2,4-di-t-amyl-6-[1-(3,5-di-t-amyl-2-hydroxyphenyl)ethyl]phenyl acrylate] |  |
| 108 | 65 | C=C(C)C(=O)Oc1c(C(C)c2cc(C(C)(C)CC)cc(C(C)(C)CC)c2O)cc(C(C)(C)CC)cc1C(C)(C)CC (stereo not drawn) [II-2, 2,4-di-t-amyl-6-[1--(3,5-di-t-amyl-2-hydroxyphenyl)ethyl]phenyl methacrylate] |  |
| 4.0 | 1.5 | C=CC(=O)Oc1c(Cc2cc(C)cc(C(C)(C)C)c2O)cc(C)cc1C(C)(C)C [AO-1, 2-t-Butyl-6-(3-t-butyl-2-hydroxy-5-methylbenzyl)-4-methylphenyl acrylate] | effective as a stabilizer for butadiene polymers |
| 2.4 | 1.1 | C=CC(=O)Oc1c(C(C)c2cc(C(C)(C)C)cc(C(C)(C)C)c2O)cc(C(C)(C)C)cc1C(C)(C)C (stereo not drawn) [AO-2, 2,4-Di-t-butyl-6-[1-(3,5-di-t-butyl-2-hydroxyphenyl)ethyl]phenyl acrylate] |  |
